Laboratory results taken from patent US20080039437A1, “New Pyridine Analogues III” (ASTRAZENECA AB, priority 2006, published 2008).

Molecular target: T1, P2Y12 receptor (Homo sapiens, UniProt Q9H244)
T1 construct: expressed in transfected cells; host or cells: CHO cells (membranes)
Test: Functional inhibition of 2-Me-S-ADP induced P2Y12 signalling (35S-GTPγS, cell membranes)
Assay type: biochemical
Details: membranes from P2Y12 transfected CHO-cells, EC80 of agonist 2-methyl-thio-adenosine diphosphate, 30° C., 45 min
Description: Functional inhibition of the P2Y12 receptor can be measured by in vitro assays using cell membranes from P2Y12 transfected CHO-cells, the methodology is indicated below.
Functional inhibition of 2-Me-S-ADP induced P2Y12 signalling: 5 μg of membranes were diluted in 200 μl of 200 mM NaCl, 1 mM MgCl2, 50 mM HEPES (pH 7.4), 0.01% BSA, 30 μg/ml saponin and 10 μM GDP. To this was added an EC80 concentration of agonist (2-methyl-thio-adenosine diphosphate), the required concentration of test compound and 0.1 μCi ^35S-GTPγS. The reaction was allowed to proceed at 30° C. for 45 min. Samples were then transferred on to GF/B filters using a cell harvester and washed with wash buffer (50 mM Tris (pH 7.4), 5 mM MgCl2, 50 mM NaCl). Filters were then covered with scintillant and counted for the amount of ^35S-GTPγS retained by the filter. Maximum activity was that determined in the presence of the agonist and minimum activity in the absence of the agonist following subtraction of the value determined for non-specific activity. The effect of compounds at various concentrations was plotted according to the equation y=A+((B−A)/(1+((C/x)ˆD))) and IC50 estimated where
A is the bottom plateau of the curve i.e. the final minimum y value
B is the top of the plateau of the curve i.e. the final maximum y value
C is the x value at the middle of the curve. This represents the log EC50 value when A+B=100 […]

T1 sequence (Q9H244 whole entry): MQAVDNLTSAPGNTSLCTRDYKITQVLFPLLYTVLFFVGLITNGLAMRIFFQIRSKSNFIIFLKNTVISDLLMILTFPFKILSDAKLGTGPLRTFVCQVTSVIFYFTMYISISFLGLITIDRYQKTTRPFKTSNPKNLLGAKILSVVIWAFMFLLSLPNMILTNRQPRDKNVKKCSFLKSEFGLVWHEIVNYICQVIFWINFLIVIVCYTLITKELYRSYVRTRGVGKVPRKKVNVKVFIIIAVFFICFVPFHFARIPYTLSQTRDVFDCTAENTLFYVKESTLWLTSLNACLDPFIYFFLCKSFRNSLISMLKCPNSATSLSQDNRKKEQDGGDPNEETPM

IC50 [nM] | Structure (SMILES)
490 | CCCCS(=O)(=O)NC(=O)C1CCN(c2nc(C(F)F)c(C(=O)OCC)cc2C#N)CC1 [Example 41, Ethyl 6-(4-{[(butylsulfonyl)amino]carbonyl}piperidin-1-yl)-5-cyano-2-(difluoromethyl)nicotinate]
270 | CCOC(=O)c1cc(C#N)c(N2CC(C(=O)NS(=O)(=O)CC3CCC(C)CC3)C2)nc1CF (centres unmarked) [Example 74, Ethyl 5-cyano-2-(fluoromethyl)-6-{3-[({[(4-methylcyclohexyl)methyl]sulfonyl}amino)carbonyl]azetidin-1-yl}nicotinate]
